Read-outs that look alike come from different tables or passages of the source.
Assays:
A549/ATCC = assay: NCI60 five-dose screen; assay type: cell-based; settings: Homo sapiens, NSC lung cancer; for CC50: read-out: LC50 (the source's name)
786-0 = assay: NCI60 five-dose screen; assay type: cell-based; settings: Homo sapiens, 786-0, renal cancer; for CC50: read-out: LC50 (the source's name)
SNB-19 = assay: NCI60 five-dose screen; assay type: cell-based; settings: Homo sapiens, SNB-19, CNS cancer; for CC50: read-out: LC50 (the source's name)
CAKI-1 = assay: NCI60 five-dose screen; assay type: cell-based; settings: Homo sapiens, CAKI-1, renal cancer; for CC50: read-out: LC50 (the source's name)
DU-145 = assay: NCI60 five-dose screen; assay type: cell-based; settings: Homo sapiens, DU-145, prostate cancer; for CC50: read-out: LC50 (the source's name)
MALME-3M = assay: NCI60 five-dose screen; assay type: cell-based; settings: Homo sapiens, melanoma; for CC50: read-out: LC50 (the source's name)
BT-549 = assay: NCI60 five-dose screen; assay type: cell-based; settings: Homo sapiens, BT-549, breast cancer; for CC50: read-out: LC50 (the source's name)
MDA-MB-435 = assay: NCI60 five-dose screen; assay type: cell-based, human; settings: Homo sapiens; for GI50: MDA-MB-435, melanoma
TK-10 = assay: NCI60 five-dose screen; assay type: cell-based; settings: Homo sapiens, TK-10, renal cancer; for CC50: read-out: LC50 (the source's name)
COLO 205 = assay: NCI60 five-dose screen; assay type: cell-based, human; settings: for CC50: read-out: LC50 (the source's name)
HCC-2998 = assay: NCI60 five-dose screen; assay type: cell-based; settings: Homo sapiens, HCC-2998, colon cancer; for CC50: read-out: LC50 (the source's name)
SF-268 = assay: NCI60 five-dose screen; assay type: cell-based; settings: Homo sapiens, SF-268, CNS cancer; for CC50: read-out: LC50 (the source's name)
OVCAR-5 = assay: NCI60 five-dose screen; assay type: cell-based; settings: Homo sapiens, OVCAR-5, ovarian cancer; for CC50: read-out: LC50 (the source's name)
MDA-MB-468 = assay: NCI60 five-dose screen; assay type: cell-based; settings: Homo sapiens, MDA-MB-468, breast cancer; for CC50: read-out: LC50 (the source's name)
SNB-75 = assay: NCI60 five-dose screen; assay type: cell-based; settings: Homo sapiens, SNB-75, CNS cancer; for CC50: read-out: LC50 (the source's name)
UACC-62 = assay: NCI60 five-dose screen; assay type: cell-based; settings: Homo sapiens, UACC-62, melanoma; for CC50: read-out: LC50 (the source's name)
OVCAR-3 = assay: NCI60 five-dose screen; assay type: cell-based; settings: Homo sapiens, OVCAR-3, ovarian cancer; for CC50: read-out: LC50 (the source's name)
NCI-H23 = assay: NCI60 five-dose screen; assay type: cell-based; settings: Homo sapiens, NCI-H23, NSC lung cancer; for CC50: read-out: LC50 (the source's name)
NCI-H226 = assay: NCI60 five-dose screen; assay type: cell-based; settings: Homo sapiens, NCI-H226, NSC lung cancer; for CC50: read-out: LC50 (the source's name)
HS 578T = assay: NCI60 five-dose screen; assay type: cell-based; settings: Homo sapiens, breast cancer; for CC50: read-out: LC50 (the source's name)
SK-OV-3 = assay: NCI60 five-dose screen; assay type: cell-based; settings: Homo sapiens, SK-OV-3, ovarian cancer; for CC50: read-out: LC50 (the source's name)
LOX IMVI = assay: NCI60 five-dose screen; assay type: cell-based; settings: Homo sapiens, melanoma; for CC50: read-out: LC50 (the source's name)
HL-60 (TB) = assay: NCI60 five-dose screen; assay type: cell-based; settings: Homo sapiens, leukemia; for CC50: read-out: LC50 (the source's name)
SK-MEL-5 = assay: NCI60 five-dose screen; assay type: cell-based, human; settings: Homo sapiens; for CC50: SK-MEL-5, SK-MEL-5, melanoma, read-out: LC50 (the source's name); for GI50: SK-MEL-5, melanoma
Human CYP19 (aromatase) = target: T1, Human CYP19 (aromatase) (Homo sapiens, UniProt P11511); assay: Aromatase inhibition assay (DBF fluorometric substrate); assay type: biochemical; settings: active defined as IC50 < 12.5 µM
T1 construct: purchased GENTEST, Woburn, MA 456260; host or cells: baculovirus/insect cells
T1 sequence (P11511 1-503): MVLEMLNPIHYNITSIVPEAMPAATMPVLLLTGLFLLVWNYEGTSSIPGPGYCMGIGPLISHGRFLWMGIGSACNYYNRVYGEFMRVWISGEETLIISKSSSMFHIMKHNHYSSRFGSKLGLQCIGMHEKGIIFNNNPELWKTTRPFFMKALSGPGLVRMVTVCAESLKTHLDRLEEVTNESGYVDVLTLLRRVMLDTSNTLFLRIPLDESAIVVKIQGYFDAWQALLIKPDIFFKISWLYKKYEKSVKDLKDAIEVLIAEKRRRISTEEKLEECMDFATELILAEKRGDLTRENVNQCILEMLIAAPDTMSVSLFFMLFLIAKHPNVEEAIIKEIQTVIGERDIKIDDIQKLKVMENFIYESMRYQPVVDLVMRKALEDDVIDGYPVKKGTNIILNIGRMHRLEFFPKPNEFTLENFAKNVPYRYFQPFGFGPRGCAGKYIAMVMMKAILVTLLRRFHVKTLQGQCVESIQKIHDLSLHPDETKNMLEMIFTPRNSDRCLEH
Outline: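 Insect-cell-expressed human CYP19 Supersomes with oxidoreductase turned over DBF for 30 min at 37 °C after a 10 min 37 °C pre-incubation with cofactor. NaOH quench; product measured by fluorescence, excitation 490 nm, emission 530 nm.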

[1] = Homo sapiens, COLO 205, COLO 205, colon cancer
[2] = Homo sapiens, COLO 205, colon cancer

Cn1cccc1/C=N/NC(=O)c1[nH]c2ccc(Br)cc2c1-c1ccccc1 [Derivative 3d, (E)-5-Bromo-N′-((1-methyl-1H-pyrrol-2-yl)methylene)-3-phenyl-1H-indole-2-carbohydrazide]
GI50 (A549/ATCC): 649 nM | CC50 (A549/ATCC): > 100000 nM | GI50 (786-0): 29400 nM | CC50 (786-0): > 100000 nM | GI50 (SNB-19): 449 nM | CC50 (SNB-19): > 100000 nM | GI50 (CAKI-1): 255 nM | CC50 (CAKI-1): > 100000 nM | GI50 (DU-145): 399 nM | CC50 (DU-145): > 100000 nM | GI50 (MALME-3M): 409 nM | CC50 (MALME-3M): > 100000 nM | GI50 (BT-549): 2810 nM | CC50 (BT-549): > 100000 nM | GI50 (MDA-MB-435): 151 nM | GI50 (TK-10): 1010 nM | CC50 (TK-10): > 100000 nM | CC50 (COLO 205; [1]): > 100000 nM | GI50 (COLO 205; [2]): 366 nM | GI50 (HCC-2998): 402 nM | CC50 (HCC-2998): > 100000 nM | GI50 (SF-268): 547 nM | CC50 (SF-268): > 100000 nM | GI50 (OVCAR-5): 472 nM | CC50 (OVCAR-5): > 100000 nM | GI50 (MDA-MB-468): 155 nM | CC50 (MDA-MB-468): > 100000 nM | GI50 (SNB-75): 259 nM | CC50 (SNB-75): > 100000 nM | GI50 (UACC-62): 283 nM | CC50 (UACC-62): > 100000 nM | GI50 (OVCAR-3): 246 nM | CC50 (OVCAR-3): > 100000 nM | GI50 (NCI-H23): 447 nM | CC50 (NCI-H23): > 100000 nM | GI50 (NCI-H226): 603 nM | CC50 (NCI-H226): > 100000 nM | GI50 (HS 578T): 220 nM | CC50 (HS 578T): > 100000 nM | GI50 (SK-OV-3): 1610 nM | CC50 (SK-OV-3): > 100000 nM | GI50 (LOX IMVI): 494 nM | CC50 (LOX IMVI): > 100000 nM | GI50 (HL-60 (TB)): 317 nM | CC50 (HL-60 (TB)): > 100000 nM | CC50 (SK-MEL-5): > 100000 nM | GI50 (SK-MEL-5): 196 nM | IC50 (Human CYP19 (aromatase)): > 12500 nM | aromatase inhibition (Human CYP19 (aromatase)): inactivity against aromatase

O=C(N/N=C/c1cc(Br)c[nH]1)c1[nH]c2ccc(Br)cc2c1-c1ccccc1 [Derivative 3e, (E)-5-Bromo-N′-((4-bromo-1H-pyrrol-2-yl)methylene)-3-phenyl-1H-indole-2-carbohydrazide]
GI50 (A549/ATCC): 395 nM | CC50 (A549/ATCC): 56400 nM | GI50 (786-0): 727 nM | CC50 (786-0): 55900 nM | GI50 (SNB-19): 330 nM | CC50 (SNB-19): 34500 nM | GI50 (CAKI-1): 329 nM | CC50 (CAKI-1): 29000 nM | GI50 (DU-145): 352 nM | CC50 (DU-145): 29700 nM | GI50 (MALME-3M): 665 nM | CC50 (MALME-3M): 32500 nM | GI50 (BT-549): 314 nM | CC50 (BT-549): 36200 nM | CC50 (MDA-MB-435; MDA-MB-435, MDA-MB-435, melanoma, read-out: LC50 (the source's name)): 24300 nM | GI50 (MDA-MB-435): 207 nM | GI50 (TK-10): 4210 nM | CC50 (TK-10): 44900 nM | CC50 (COLO 205; COLO 205, colon cancer): 884 nM | CC50 (COLO 205; [1]): 890 nM | GI50 (COLO 205; [2]): 192 nM | GI50 (HCC-2998): 296 nM | CC50 (HCC-2998): 15600 nM | GI50 (SF-268): 529 nM | CC50 (SF-268): 52900 nM | GI50 (OVCAR-5): 346 nM | CC50 (OVCAR-5): 26500 nM | GI50 (MDA-MB-468): 231 nM | CC50 (MDA-MB-468): 13000 nM | GI50 (SNB-75): 475 nM | CC50 (SNB-75): 51000 nM | GI50 (UACC-62): 439 nM | CC50 (UACC-62): 17700 nM | GI50 (OVCAR-3): 302 nM | CC50 (OVCAR-3): 17300 nM | GI50 (NCI-H23): 298 nM | CC50 (NCI-H23): 26900 nM | GI50 (NCI-H226): 382 nM | CC50 (NCI-H226): 29900 nM | GI50 (HS 578T): 340 nM | CC50 (HS 578T): > 100000 nM | GI50 (SK-OV-3): 966 nM | CC50 (SK-OV-3): 53800 nM | GI50 (LOX IMVI): 360 nM | CC50 (LOX IMVI): 6980 nM | GI50 (HL-60 (TB)): 327 nM | CC50 (HL-60 (TB)): > 100000 nM | CC50 (SK-MEL-5): 1220 nM | GI50 (SK-MEL-5): 195 nM | IC50 (Human CYP19 (aromatase)): 4000 ± 1000 nM
